Data from US8399683B2 (TetraLogic Pharmaceuticals, priority 2008, dated 2013).

Key:
SK-OV-3 cells = test: Growth inhibition of ovarian cancer cell line SK-OV-3 (MTT assay, cell survival); format: cell-based; details: Homo sapiens, drug concentration that results in 50% cell survival, 72 hrs incubation, reported as ranges
Outline: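 After overnight seeding in McCoy's medium with 10% FBS, SK-OV-3 cells were exposed to compound at 0.003-10 μM for 72 hrs at 37° C. MTT was then added for 3 h, with DMSO solubilization and OD read at 535 nm. CC50 is the concentration giving 50% survival relative to untreated control, reported as ranges.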

cIAP-1 BIR-3 = cIAP-1 BIR-3 (Homo sapiens, UniProt Q13490); test: Fluorescence polarization binding affinity to cIAP-1 BIR-3 (competition with AbuRPF-K(5-Fam)-NH2); details: 5 nM labeled peptide, 40 nM BIR3, 15 min at RT, pH 7.5; reported as ranges; read-out: KD (c-IAP-1 BIR3)
cIAP-1 BIR-3, sequence (Q13490 266-352 limits assumed): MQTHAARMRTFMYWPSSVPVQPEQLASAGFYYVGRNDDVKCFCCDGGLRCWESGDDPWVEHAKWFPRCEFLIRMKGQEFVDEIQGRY
Outline: (§1)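 Test peptides at varied concentrations competed with 5 nM fluorescent Smac-mimetic tracer for 40 nM BIR3 domain, 15 min at RT in 0.1M potassium phosphate pH 7.5 with […] bovine g-globulin. Polarization (mP) read at 485/520 nm; KD reported in bins (A=<0.1 μM, B=0.1–1 μM, C>1–10 μM, D=>10 μM).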

XIAP BIR-3 = biological target: T1, XIAP BIR-3 (Homo sapiens, UniProt P98170); test: Fluorescence polarization binding affinity to XIAP BIR-3 (competition with AbuRPF-K(5-Fam)-NH2); details: 5 nM labeled peptide, 40 nM BIR3, 15 min at RT, pH 7.5; reported as ranges
T1 construct: 40 nM of the respective IAP BIR3
T1 sequence (P98170 241-356 limits assumed): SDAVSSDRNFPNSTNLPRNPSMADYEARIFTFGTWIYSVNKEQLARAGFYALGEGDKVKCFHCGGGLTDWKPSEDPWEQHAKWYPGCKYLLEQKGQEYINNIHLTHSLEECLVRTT
Outline: as §1

SMILES | Kd (cIAP-1 BIR-3) [nM] | Kd (XIAP BIR-3) [nM] | CC50 (SK-OV-3 cells) [nM]
CN[C@@H](C)C(=O)N[C@H](C(=O)N1CC[C@@H]2[C@H]1[C@@H](c1c[nH]c3cc(F)ccc13)CN2c1ncccn1)[C@@H](C)O [Example 82, N-{1-[6-(6-Fluoro-1H-indol-3-yl)-4-pyrimidin-2-yl-hexahydro-pyrrolo[3,2-b]pyrrole-1-carbonyl]-2-hydroxy-propyl}-2-methylamino-propionamide] | < 100 | < 100 | < 100
CN[C@@H](C)C(=O)N[C@H](C(=O)N1CC[C@@H]2[C@H]1[C@@H](c1c[nH]c3cc(F)ccc13)CN2Cc1ccccc1)[C@@H](C)O [Example 101] | < 100 | 100 to 1000 | 100 to 1000
C[C@H](N)C(=O)N[C@H](C(=O)N1CC[C@H]2NC[C@H](c3c[nH]c4cc(F)ccc34)[C@H]21)C1CCCCC1 [Example 88] | < 100 | < 100 | > 10000
CN[C@@H](C)C(=O)N[C@H](C(=O)N1CC[C@@H]2[C@H]1[C@@H](c1c[nH]c3cc(F)ccc13)CN2S(C)(=O)=O)C(C)O (stereo partly drawn) [Example 56] | < 100 | < 100 | < 100
C[C@H](N)C(=O)N[C@H](C(=O)N1CC[C@H]2NC[C@H](c3cn(Cc4ccccc4)c4cc(F)ccc34)[C@H]21)C1CCCCC1 [Example 92] | < 100 | < 100 | 1000 to 10000
CN[C@@H](C)C(=O)N[C@H](C(=O)N1CC[C@@H]2[C@H]1[C@@H](c1c[nH]c3cc(F)ccc13)CN2c1ncccn1)C(C)C [Example 77, N-{1-[6-(6-Fluoro-1H-indol-3-yl)-4-pyrimidin-2-yl-hexahydro-pyrrolo[3,2-b]pyrrole-1-carbonyl]-2-methyl-propyl}-2-methylamino-propionamide] | < 100 | < 100 | < 100
CN[C@@H](C)C(=O)N[C@H](C(=O)N1CC[C@@H]2[C@H]1[C@@H](c1c[nH]c3ccccc13)CN2C(C)C)C1CCCCC1 [Example 98] | 100 to 1000 | 1000 to 10000 | 100 to 1000
CN[C@@H](C)C(=O)N[C@@H](COC)C(=O)N1CC[C@@H]2[C@H]1[C@@H](c1c[nH]c3cc(F)ccc13)CN2Cc1ccccc1 [Example 102] | 100 to 1000 | 1000 to 10000 | 1000 to 10000
CN[C@@H](C)C(=O)N[C@H](C(=O)N1CC[C@H]2NC[C@H](c3c[nH]c4cc(F)ccc34)[C@H]21)[C@@H](C)O [Example 28, N-{1-[6-(6-Fluoro-1H-indol-3-yl)-hexahydro-pyrrolo[3,2-b]pyrrole-1-carbonyl]-2-hydroxy-propyl}-2-methylamino-propionamide] | < 100 | 100 to 1000 | 1000 to 10000
CN[C@@H](C)C(=O)N[C@H](C(=O)N1CC[C@H]2NC[C@@H](c3c[nH]c4ccccc34)[C@H]21)C1CCCCC1 [Example 1, N-{1S-Cyclohexyl-2-[(3aR,6aR)-6R-(1H-indol-3-yl)-hexahydro-pyrrolo[3,2-b]pyrrol-1-yl]-2-oxo-ethyl}-2S-methylamino-propionamide] | > 10000 | > 10000 | 1000 to 10000
CN[C@@H](C)C(=O)N[C@H](C(=O)N1CC[C@H]2NC[C@@H](c3c[nH]c4ccccc34)[C@H]21)[C@@H](C)OC [Example 89] | 100 to 1000 | > 10000 | > 10000
CO[C@H](C)[C@H](NC(=O)[C@H](C)N)C(=O)N1CC[C@H]2NC[C@H](c3cn(Cc4ccccc4)c4cc(F)ccc34)[C@H]21 [Example 93] | < 100 | < 100 | 1000 to 10000
CN[C@@H](C)C(=O)N[C@H](C(=O)N1CC[C@H]2NC[C@H](c3c[nH]c4cc(F)ccc34)[C@H]21)[C@@H](C)OC [Example 35, N-{1-[6-(6-Fluoro-1H-indol-3-yl)-hexahydro-pyrrolo[3,2-b]pyrrole-1-carbonyl]-2-methoxy-propyl}-2-methylamino-propionamide] | < 100 | < 100 | < 100

The next lines start with results.

Kd (cIAP-1 BIR-3) [nM] | Kd (XIAP BIR-3) [nM] | SMILES | CC50 (SK-OV-3 cells) [nM]
1000 to 10000 | 1000 to 10000 | CN[C@@H](C)C(=O)N[C@H](C(=O)N1CC[C@@H]2[C@H]1[C@H](c1c[nH]c3cc(F)ccc13)CN2C1CCCC1)C(C)(C)C [Example 3, N-{1-[4-Cyclopentyl-6-(6-fluoro-1H-indol-3-yl)-hexahydro-pyrrolo[3,2-b]pyrrole-1-carbonyl]-2,2-dimethyl-propyl}-2-methylamino-propionamide] | 1000 to 10000
< 100 | < 100 | CN[C@@H](C)C(=O)N[C@@H](COC)C(=O)N1CC[C@@H]2[C@H]1[C@@H](c1c[nH]c3ccc(F)cc13)CN2C(C)=O [Example 72, N-{2-[4-Acetyl-6-(5-fluoro-1H-indol-3-yl)-hexahydro-pyrrolo[3,2-b]pyrrol-1-yl]-1-methoxymethyl-2-oxo-ethyl}-2-methylamino-propionamide] | 1000 to 10000
< 100 | < 100 | CC[C@H](NC(=O)[C@H](C)NC)C(=O)N1CC[C@@H]2[C@H]1[C@@H](c1c[nH]c3cc(F)ccc13)CN2S(C)(=O)=O [Example 46, N-{1-[6-(6-Fluoro-1H-indol-3-yl)-4-methanesulfonyl-hexahydro-pyrrolo[3,2-b]pyrrole-1-carbonyl]-propyl}-2-methylamino-propionamide] | < 100
100 to 1000 | > 10000 | CC[C@H](NC(=O)[C@H](C)NC)C(=O)N1CC[C@@H]2[C@H]1[C@H](c1c[nH]c3cc(F)ccc13)CN2C1CCCC1 [Example 5, N-{1-[4-Cyclopentyl-6-(6-fluoro-1H-indol-3-yl)-hexahydro-pyrrolo[3,2-b]pyrrole-1-carbonyl]-propyl}-2-methylamino-propionamide] | 1000 to 10000
100 to 1000 | 1000 to 10000 | CN[C@@H](C)C(=O)N[C@@H](COC)C(=O)N1CC[C@@H]2[C@H]1[C@@H](c1c[nH]c3cc(F)ccc13)CN2C1CCCC1 [Example 13] | 1000 to 10000
< 100 | 100 to 1000 | CN[C@@H](C)C(=O)N[C@H](C(=O)N1CC[C@@H]2[C@H]1[C@@H](c1c[nH]c3cc(F)ccc13)CN2CC(=O)O)C1CCCCC1 [Example 42, [4-[2-Cyclohexyl-2-(2-methylamino-propionylamino)-acetyl]-3-(6-fluoro-1H-indol-3-yl)-hexahydro-pyrrolo[3,2-b]pyrrol-1-yl]-acetic acid] | 1000 to 10000
100 to 1000 | > 10000 | CN[C@@H](C)C(=O)N[C@@H](CO)C(=O)N1CC[C@@H]2[C@H]1[C@H](c1c[nH]c3cc(F)ccc13)CN2C1CCCC1 [Example 10, N-{2-[4-Cyclopentyl-6-(6-fluoro-1H-indol-3-yl)-hexahydro-pyrrolo[3,2-b]pyrrol-1-yl]-1-hydroxymethyl-2-oxo-ethyl}-2-methylamino-propionamide] | 1000 to 10000
< 100 | < 100 | CN[C@@H](C)C(=O)N[C@@H](CO)C(=O)N1CC[C@@H]2[C@H]1[C@@H](c1c[nH]c3cc(F)ccc13)CN2c1ncccn1 [Example 80, N-{2-[6-(6-Fluoro-1H-indol-3-yl)-4-pyrimidin-2-yl-hexahydro-pyrrolo[3,2-b]pyrrol-1-yl]-1-hydroxymethyl-2-oxo-ethyl}-2-methylamino-propionamide] | < 100
< 100 | < 100 | CN[C@@H](C)C(=O)N[C@H](C(=O)N1CC[C@@H]2[C@H]1[C@@H](c1c[nH]c3cc(F)ccc13)CN2S(C)(=O)=O)C1CCCCC1 [Example 43, N-{1-Cyclohexyl-2-[6-(6-fluoro-1H-indol-3-yl)-4-methanesulfonyl-hexahydro-pyrrolo[3,2-b]pyrrol-1-yl]-2-oxo-ethyl}-2-methylamino-propionamide] | < 100
< 100 | < 100 | CN[C@@H](C)C(=O)N[C@H](C(=O)N1CC[C@@H]2[C@H]1[C@@H](c1c[nH]c3cc(F)ccc13)CN2c1nccc(Cl)n1)C1CCCCC1 [Example 76, N-{2-[4-(4-Chloro-pyrimidin-2-yl)-6-(6-fluoro-1H-indol-3-yl)-hexahydro-pyrrolo[3,2-b]pyrrol-1-yl]-1-cyclohexyl-2-oxo-ethyl}-2-methylamino-propionamide] | < 100
100 to 1000 | 1000 to 10000 | CN[C@@H](C)C(=O)N[C@@H](CO)C(=O)N1CC[C@@H]2[C@H]1[C@@H](c1c[nH]c3cc(F)ccc13)CN2Cc1ccccc1 [Example 103] | 1000 to 10000
< 100 | < 100 | CN[C@@H](C)C(=O)N[C@H](C(=O)N1CC[C@@H]2[C@H]1[C@@H](c1c[nH]c3cc(F)ccc13)CN2C(C)=O)C(C)C [Example 61, N-{1-[4-Acetyl-6-(6-fluoro-1H-indol-3-yl)-hexahydro-pyrrolo[3,2-b]pyrrole-1-carbonyl]-2-methyl-propyl}-2-methylamino-propionamide] | < 100
< 100 | 100 to 1000 | CN[C@@H](C)C(=O)N[C@H](C(=O)N1CC[C@@H]2[C@H]1[C@@H](c1c[nH]c3cc(F)ccc13)CN2C1CCCC1)C(C)C [Example 8] | 100 to 1000
